Among the data in BindingDB's records for doi:10.1016/0006-8993(88)90805-0 (Veterans Administration Medical Center, 1988) are Ki values, retold here.

pKi: −log10 of the molar value.

Usually pKi stands for the negative decadic logarithm of the Ki, by convention in mol/L. A lower pKi goes with a large Ki.

This test has as its target Sodium-dependent serotonin transporter (Rattus norvegicus, UniProt P31652).

Sodium-dependent serotonin transporter, sequence (P31652 whole entry): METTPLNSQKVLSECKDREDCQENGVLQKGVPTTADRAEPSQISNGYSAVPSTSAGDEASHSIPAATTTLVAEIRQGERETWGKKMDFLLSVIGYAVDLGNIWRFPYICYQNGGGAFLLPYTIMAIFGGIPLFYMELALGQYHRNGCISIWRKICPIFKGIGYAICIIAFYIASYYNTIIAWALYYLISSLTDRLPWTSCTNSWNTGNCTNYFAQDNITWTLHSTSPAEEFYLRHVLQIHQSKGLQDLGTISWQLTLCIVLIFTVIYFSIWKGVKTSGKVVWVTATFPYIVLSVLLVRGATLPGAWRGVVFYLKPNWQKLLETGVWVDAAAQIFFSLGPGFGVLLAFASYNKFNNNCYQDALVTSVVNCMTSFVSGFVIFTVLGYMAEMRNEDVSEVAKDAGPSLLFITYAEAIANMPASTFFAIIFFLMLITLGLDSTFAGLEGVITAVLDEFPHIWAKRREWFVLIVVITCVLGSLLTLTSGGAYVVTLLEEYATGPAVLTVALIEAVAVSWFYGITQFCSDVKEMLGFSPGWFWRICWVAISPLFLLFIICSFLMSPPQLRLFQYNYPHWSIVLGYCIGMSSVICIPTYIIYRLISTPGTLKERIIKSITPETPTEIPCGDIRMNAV

In turn, `CC[C@@H](CO)NC(=O)[C@@H]1C=C2c3cccc4c3c(cn4C)C[C@H]2N(C)C1` had a pKi of 5.43.
